Experimental data: patent publication EP0390762A1, “New bronchospasmolytic compounds and process for their preparation” (priority 1989, dated 1990)
Values belong to the compound of their own block, whether it stands above or below them.

Columns and labels:
[1] = test system: histamine-elicited bronchospasm; experiment: Bronchospasmolytic effect (reduction of intratracheal pressure, ITP) in anaesthetized guinea pigs; type: in vivo; conditions: for dose-related inhibition of the histamine-elicited bronchospasm: after injection as well as after inhalation; for reduction of ITP: 3 minutes before histamine infusion
Method: (§1) Guinea pigs of either sex were used in the study. The anaesthesia was produced by intravenous pentobarbital, The trachea was cannulated and the animals articificially ventilated by a constant volume respiratory. The intratracheal pressure (ITP) was measured by a pressure transducer. An increase in ITP, above the basic pressure level, indicating a respiratory spasm, was elicited by histamine infused in a jugular vein during 20 sec. every 7 minutes and in amounts producing a peak-ITP in the range 4-6 kPa. To trace cardiovascular effects from used drugs the blood pressure was recorded from a carotide artery via a pressure transducer. The pulse wave, indicating the rate, was triggering a tachograph recording the heart frequency.
(§2) The test compounds were injected 3 minutes before a histamine infusion and the decrease in percent of the intratracheal pressure (ITP) was taken as a measure of the bronchospasmolytic activity. The influence on heart-rate was evaluated after cumultative injections; a new injection was given when the preceding one had produced a steady state in the rate.
(§3) The test compounds were nebulized and the mist produced was led to the animal through the respirator and tracheal cannula. Inhalation continued for 15 mintues for each concentration of the test compounds. The bronchodilating effect […] was calculated as percent reduction in ITP. The effect on heart-rate was determined after a cumultative increase in the concentrations of the nebulized solutions. Effect measurements were made at steady state, and three different concentrations were used.

[2] = test system: dyspnotic breathing in histamine; experiment: Duration of bronchodilating activity in conscious guinea pigs challenged with aerosolized histamine after tracheal instillation or inhalation; type: in vivo; conditions: for initial potency compared with salmeterol / initial potency compared with terbutaline: conscious guinea pigs, histamine challenge; for delay (in minutes) in the appearance of dyspnotic breathing in histamine 0.5 h after the administration / delay (in minutes) in the appearance of dyspnotic breathing in histamine 6 h after the administration: given intratracheally
Method: Concious guinea pigs were used in the study. The compounds according to Examples 1 and 2, salmeterol and terbutaline, were given by inhalation or by tracheal instillation whereafter the animals were challenged in a histamine mist after different time intervals.
The guinea pigs were placed in plastic boxes and the test compounds delivered by continuous flow nebulization during 15 minutes.
The animals were lightly anaesthetized by inhalation of Efrane. The test compounds were instilled by use of a thin cannula to the tracheal bifurcation. Controlled animals were instilled with saline.
After the administrations, according to one of the mentioned routes, the animals were placed in transparent plastic cages and challenged with aerosolized histamine. The mist was generated in a nebulizer from a solution containing 0.5-1.0x10⁻³ mol/l of histamine in 3% glycerol. This concentration produced a defined dyspnotic breathing, appearing in control animals within 2-3 minutes. This phase was usally indicated by observation, sometimes also a "blinded trial" or recorded by use of a strain-gauge belt (see 0.A.T. Olsson in Acta Allergologica 26, 438, 1971). An increasing amount of spasmolytic drug gives then rise to a dose-dependent prolongation of the ability of the animals to resist this histamine spasm. As soon as a dyspnotic breathing was established the guinea pigs were removed from the histamine milieu since the same animals have to be exposed to histamine not only after 30 minutes but also at 3, 6 and 9 hours after drug administration.
In some of the experiments the animals were challenged with methacholine instead of histamine to exclude the eventuality of an antihistaminic effect of the drugs tested.
The amounts instilled produce about equieffective protection (6 to 7 minutes) against a histamine provocation 30 minutes after the administration of the test compound. The degree of protection 6 hours after the instillation of the test compound indicates the duration of the bronchospasmolytic activity.

heart-rate = experiment: Heart-stimulating effect (heart-rate) in anaesthetized guinea pigs; type: in vivo
Method: as §1, §2, §3

[3] = inhalation therapy; cited from earlier work

Structure (SMILES): COc1ccc(CNc2cc([C@@H](O)CN[C@@H](C)Cc3ccc4c(c3)OCO4)ccc2O)cc1 (racemic) [(R,S+S,R)]
dose-related inhibition of the histamine-elicited bronchospasm [1]: inhibition of the histamine-elicited bronchospasm
reduction of ITP ([1]; injection of 5x10⁻⁹ mol/kg): about 50 per cent
initial potency compared with salmeterol [2]: approximately ten times less than for salmeterol
initial potency compared with terbutaline [2]: about the same as for terbutaline
delay (in minutes) in the appearance of dyspnotic breathing in histamine 0.5 h after the administration ([2]; 1x10⁻⁸ mol/kg): 7 min
delay (in minutes) in the appearance of dyspnotic breathing in histamine 6 h after the administration ([2]; 1x10⁻⁸ mol/kg): 6 min
effect on heart rate compared with salmeterol (heart-rate; after inhalation): more reduced effect on heart rate
relationship between the effect on the respiratory system and heart, compared with salmeterol (heart-rate; when the drugs are injected): the same

Structure (SMILES): COc1ccc(CNc2cc([C@@H](O)CN[C@H](C)Cc3ccc4c(c3)OCO4)ccc2O)cc1 [(R,R)]
delay (in minutes) in the appearance of dyspnotic breathing in histamine 0.5 h after the administration ([2]; 5x10⁻⁸ mol/kg): 7 min
delay (in minutes) in the appearance of dyspnotic breathing in histamine 6 h after the administration ([2]; 5x10⁻⁸ mol/kg): 3 min

Structure (SMILES): COc1ccc(CNc2cc(C(O)CNC(C)Cc3ccc4c(c3)OCO4)ccc2O)cc1 [(R,R+S,R)]
delay (in minutes) in the appearance of dyspnotic breathing in histamine 0.5 h after the administration ([2]; 1x10⁻⁷ mol/kg): 7 min
delay (in minutes) in the appearance of dyspnotic breathing in histamine 6 h after the administration ([2]; 1x10⁻⁷ mol/kg): 3 min

Structure (SMILES): COc1ccc(CNc2cc([C@@H](O)CN[C@@H](C)Cc3ccc4c(c3)OCO4)ccc2O)cc1 [(R,S), 1-(R)-(4-hydroxy-3-(p-methoxybenzylamino)phenyl)-2-[(1(S)-methyl-2-(3,4-methylenedioxyphenyl)ethyl)amino]ethanol]
initial potency compared with salmeterol [2]: approximately ten times less than for salmeterol
initial potency compared with terbutaline [2]: about the same as for terbutaline
delay (in minutes) in the appearance of dyspnotic breathing in histamine 0.5 h after the administration ([2]; 5x10⁻⁹ mol/kg): 6 min
delay (in minutes) in the appearance of dyspnotic breathing in histamine 6 h after the administration ([2]; 5x10⁻⁹ mol/kg): 5 min

Structure (SMILES): COc1ccc(CNc2cc(C(O)CNC(C)Cc3ccc4c(c3)OCO4)ccc2O)cc1 [(R,S+S,S)]
delay (in minutes) in the appearance of dyspnotic breathing in histamine 0.5 h after the administration ([2]; 1x10⁻⁸ mol/kg): 6 min
delay (in minutes) in the appearance of dyspnotic breathing in histamine 6 h after the administration ([2]; 1x10⁻⁸ mol/kg): 5 min

effect on heart-rate relative to salmeterol and the compounds of the invention (heart-rate; guinea pig, in vivo): lies in between
increase of the heart-rate (heart-rate; guinea pig, in vivo, iv): about 30 beats/min
Structure (SMILES): CC(C)(C)NCC(O)c1cc(O)cc(O)c1 (centres unmarked) [Terbutaline, terbutaline]
dose-related inhibition of the histamine-elicited bronchospasm [1]: inhibition of the histamine-elicited bronchospasm
reduction of ITP ([1]; injection of 1x10⁻⁸ mol/kg): about 50 per cent
duration of activity [3]: 4 to 6 h
delay (in minutes) in the appearance of dyspnotic breathing in histamine 0.5 h after the administration ([2]; 1x10⁻⁷ mol/kg): 7 min
delay (in minutes) in the appearance of dyspnotic breathing in histamine 6 h after the administration ([2]; 1x10⁻⁷ mol/kg): 2 min

Structure (SMILES): Cc1ccc(C(=O)Oc2ccc(C(O)CNC(C)(C)C)cc2OC(=O)c2ccc(C)cc2)cc1 (centres unmarked) [bitolterol]
duration of activity [3]: 4 to 6 h

Structure (SMILES): CC(Cc1ccc(O)cc1)NCC(O)c1cc(O)cc(O)c1 (centres unmarked) [fenoterol]
duration of activity [3]: 4 to 6 h

Structure (SMILES): CC(C)(C)NCC(O)c1ccc(O)c(CO)c1 (centres unmarked) [salbutamol]
duration of activity [3]: 4 to 6 h

increase of the heart-rate (heart-rate; guinea pig, in vivo): 15 beats/min
increase of the heart-rate (heart-rate; guinea pig, in vivo, iv): about 30 beats/min
Structure (SMILES): OCc1cc(C(O)CNCCCCCCOCCCCc2ccccc2)ccc1O (centres unmarked) [salmeterol]
dose-related inhibition of the histamine-elicited bronchospasm [1]: inhibition of the histamine-elicited bronchospasm
reduction of ITP ([1]; injection of 5x10⁻¹⁰ mol/kg): about 50 per cent
potency compared with the other two drugs (compound of Example 2, terbutaline) ([1]; when inhaled): about five times
potency compared with the other two drugs (compound of Example 2, terbutaline) ([1]; when injected): at least ten times higher
duration of activity compared with terbutaline ([2]; calculated from an equipotent level): prolonged
